# Measured values as given in patent US10004701B2, “Methods and compositions for treating infection” (UNIVERSITY OF ROCHESTER, priority 2012, dated 2018).
# Where a name gives a salt, the structure may show the parent alone. Read-outs that look alike come from different tables or passages of the source.
# What was measured:
# Test in all cases: AK assay 384-well format, Prestwick library screening
# [1] = tested on: P. aeruginosa; format: cell-based, Pseudomonas aeruginosa; details: 50 μM final drug concentration; for fold induction at 50 µM: Pseudomonas aeruginosa, 3 h
# [2] = tested on: A. baumannii strain 98-37-09; format: cell-based, Acinetobacter baumannii; details: 50 μM final drug concentration; for fold induction at 50 µM: Acinetobacter baumannii, 983709, 3 h
# [3] = tested on: E. cloacae; format: cell-based, Enterobacter cloacae; details: 50 μM final drug concentration; for fold induction at 50 µM: Enterobacter cloacae, 3 h
# [4] = tested on: E. faecium; format: cell-based, Enterococcus faecium; details: 50 μM final drug concentration; for fold induction at 50 µM: Enterococcus faecium, 3 h
# [5] = tested on: K. pneumoniae; format: cell-based, Klebsiella pneumoniae; details: 50 μM final drug concentration; for fold induction at 50 µM: Klebsiella pneumoniae, 3 h
# [6] = tested on: E. coli; format: cell-based, Escherichia coli; details: 50 μM final drug concentration; for fold induction at 50 µM: Escherichia coli, 3 h
# [7] = tested on: S. aureus strain USA300-0114; format: cell-based, Staphylococcus aureus; details: 50 μM final drug concentration; for fold induction at 50 µM: Staphylococcus aureus, USA300, 3 h
# [8] = 384-well format, cutoff for positive-scoring molecules 3-fold increase, read-out: AK-based Prestwick Library Screening Results, P. aeruginosa (increase in extracellular AK activity)
# [9] = 384-well format, cutoff for positive-scoring molecules 3-fold increase, read-out: AK-based Prestwick Library Screening Results, A. baumannii (increase in extracellular AK activity)
# [10] = 384-well format, cutoff for positive-scoring molecules 3-fold increase, read-out: AK-based Prestwick Library Screening Results, E. cloacae (increase in extracellular AK activity)
# [11] = 384-well format, cutoff for positive-scoring molecules 3-fold increase, read-out: AK-based Prestwick Library Screening Results, E. faecium (increase in extracellular AK activity)
# [12] = 384-well format, cutoff for positive-scoring molecules 3-fold increase, read-out: AK-based Prestwick Library Screening Results, K. pneumoniae (increase in extracellular AK activity)
# [13] = 384-well format, cutoff for positive-scoring molecules 3-fold increase, read-out: AK-based Prestwick Library Screening Results, E. coli (increase in extracellular AK activity)
# [14] = 384-well format, cutoff for positive-scoring molecules 3-fold increase, read-out: AK-based Prestwick Library Screening Results, S. aureus (increase in extracellular AK activity)
# [15] = planktonic P. aeruginosa, cutoff for positive-scoring molecules 3-fold increase, read-out: AK-based Prestwick Library Screening Results, P. aeruginosa (increase in extracellular AK activity)
# [16] = planktonic A. baumannii, cutoff for positive-scoring molecules 3-fold increase, read-out: AK-based Prestwick Library Screening Results, A. baumannii (increase in extracellular AK activity)
# [17] = planktonic E. cloacae, cutoff for positive-scoring molecules 3-fold increase, read-out: AK-based Prestwick Library Screening Results, E. cloacae (increase in extracellular AK activity)
# [18] = planktonic E. faecium, cutoff for positive-scoring molecules 3-fold increase, read-out: AK-based Prestwick Library Screening Results, E. faecium (increase in extracellular AK activity)
# [19] = planktonic K. pneumoniae, cutoff for positive-scoring molecules 3-fold increase, read-out: AK-based Prestwick Library Screening Results, K. pneumoniae (increase in extracellular AK activity)
# [20] = planktonic E. coli, cutoff for positive-scoring molecules 3-fold increase, read-out: AK-based Prestwick Library Screening Results, E. coli (increase in extracellular AK activity)
# [21] = planktonic S. aureus, cutoff for positive-scoring molecules 3-fold increase, read-out: AK-based Prestwick Library Screening Results, S. aureus (increase in extracellular AK activity)
# [22] = planktonic, cutoff for positive 3-fold increase
structure (smiles),measurement,setting,value
CC12CC3CC(C)(C1)CC(N)(C3)C2 [Memantine Hydrochloride],fold induction at 50 µM,"[1]; planktonic P. aeruginosa, positive cutoff 3-fold increase, read-out: AK-based Prestwick library screening result, P. aeruginosa (fold increase in extracellular AK activity)",0.6
same,fold induction at 50 µM,"[2]; planktonic A. baumannii, positive cutoff 3-fold increase, read-out: AK-based Prestwick library screening result, A. baumannii (fold increase in extracellular AK activity)",0.7
same,fold induction at 50 µM,"[3]; planktonic E. cloacae, positive cutoff 3-fold increase, read-out: AK-based Prestwick library screening result, E. cloacae (fold increase in extracellular AK activity)",0.7
same,fold induction at 50 µM,"[4]; planktonic E. faecium, positive cutoff 3-fold increase, read-out: AK-based Prestwick library screening result, E. faecium (fold increase in extracellular AK activity)",0.9
same,fold induction at 50 µM,"[5]; planktonic K. pneumoniae, positive cutoff 3-fold increase, read-out: AK-based Prestwick library screening result, K. pneumoniae (fold increase in extracellular AK activity)",0.5
same,fold induction at 50 µM,"[6]; planktonic E. coli, positive cutoff 3-fold increase, read-out: AK-based Prestwick library screening result, E. coli (fold increase in extracellular AK activity)",0.6
same,fold induction at 50 µM,"[7]; planktonic S. aureus, positive cutoff 3-fold increase, read-out: AK-based Prestwick library screening result, S. aureus (fold increase in extracellular AK activity)",0.6
C#C[C@]1(O)CC[C@H]2[C@@H]3CCC4=Cc5oncc5C[C@]4(C)[C@H]3CC[C@@]21C [Danazol],fold induction at 50 µM,[1]; [8],0.8
same,fold induction at 50 µM,[2]; [9],0.9
same,fold induction at 50 µM,[3]; [10],0.9
same,fold induction at 50 µM,[4]; [11],0.9
same,fold induction at 50 µM,[5]; [12],0.6
same,fold induction at 50 µM,[6]; [13],0.7
same,fold induction at 50 µM,[7]; [14],0.6
CC(Oc1ccccc1)C(=O)N[C@@H]1C(=O)N2[C@@H]1SC(C)(C)[C@@H]2C(=O)O (stereo partly shown) [Phenethicillin potassium salt],fold induction at 50 µM,"[1]; planktonic, cutoff for positive 3-fold increase, read-out: AK-based Prestwick Library Screening Results, P. aeruginosa (fold increase in extracellular AK activity)",0.4
same,fold induction at 50 µM,"[2]; planktonic, cutoff for positive 3-fold increase, read-out: AK-based Prestwick Library Screening Results, A. baumannii (fold increase in extracellular AK activity)",0.8
same,fold induction at 50 µM,"[3]; planktonic, cutoff for positive 3-fold increase, read-out: AK-based Prestwick Library Screening Results, E. cloacae (fold increase in extracellular AK activity)",0.3
same,fold induction at 50 µM,"[4]; planktonic, cutoff for positive 3-fold increase, read-out: AK-based Prestwick Library Screening Results, E. faecium (fold increase in extracellular AK activity)",1
same,fold induction at 50 µM,"[5]; planktonic, cutoff for positive 3-fold increase, read-out: AK-based Prestwick Library Screening Results, K. pneumoniae (fold increase in extracellular AK activity)",0.5
same,fold induction at 50 µM,"[6]; planktonic, cutoff for positive 3-fold increase, read-out: AK-based Prestwick Library Screening Results, E. coli (fold increase in extracellular AK activity)",0.5
same,fold induction at 50 µM,"[7]; planktonic, cutoff for positive 3-fold increase, read-out: AK-based Prestwick Library Screening Results, S. aureus (fold increase in extracellular AK activity)",0.6
CC(=O)Oc1ccc(C(c2ccc(OC(C)=O)cc2)c2ccccn2)cc1 [Bisacodyl],fold induction at 50 µM,[1]; [15],0.6
same,fold induction at 50 µM,[2]; [16],0.8
same,fold induction at 50 µM,[3]; [17],0.9
same,fold induction at 50 µM,[4]; [18],1
same,fold induction at 50 µM,[5]; [19],0.6
same,fold induction at 50 µM,[6]; [20],0.6
same,fold induction at 50 µM,[7]; [21],0.5
CC[C@]12CCCN3CCc4c(n(c5ccccc45)[C@](O)(C(=O)OC)C1)[C@@H]32 [Epivincamine],"AK-based Prestwick Library Screening Results, P. aeruginosa (fold increase in extracellular AK activity)","[1]; planktonic, […]",1.2
same,"AK-based Prestwick Library Screening Results, A. baumannii (fold increase in extracellular AK activity)","[2]; planktonic, […]",1.2
same,"AK-based Prestwick Library Screening Results, E. cloacae (fold increase in extracellular AK activity)","[3]; planktonic, […]",1.6
same,"AK-based Prestwick Library Screening Results, E. faecium (fold increase in extracellular AK activity)","[4]; planktonic, […]",1.0
same,"AK-based Prestwick Library Screening Results, K. pneumoniae (fold increase in extracellular AK activity)","[5]; planktonic, […]",1.2
same,"AK-based Prestwick Library Screening Results, E. coli (fold increase in extracellular AK activity)","[6]; planktonic, […]",1.3
same,"AK-based Prestwick Library Screening Results, S. aureus (fold increase in extracellular AK activity)","[7]; planktonic, […]",1.0
Cc1c(NC(C)C)c(=O)n(-c2ccccc2)n1C.Cl [Isopyrin hydrochloride],"AK-based Prestwick Library Screening Results, P. aeruginosa (fold increase in extracellular AK activity)",[1]; [22],0.4
same,"AK-based Prestwick Library Screening Results, A. baumannii (fold increase in extracellular AK activity)",[2]; [22],0.3
same,"AK-based Prestwick Library Screening Results, E. cloacae (fold increase in extracellular AK activity)",[3]; [22],0.3
same,"AK-based Prestwick Library Screening Results, E. faecium (fold increase in extracellular AK activity)",[4]; [22],0.8
same,"AK-based Prestwick Library Screening Results, K. pneumoniae (fold increase in extracellular AK activity)",[5]; [22],0.4
same,"AK-based Prestwick Library Screening Results, E. coli (fold increase in extracellular AK activity)",[6]; [22],0.4
same,"AK-based Prestwick Library Screening Results, S. aureus (fold increase in extracellular AK activity)",[7]; [22],0.4
C=CC(N)CCC(=O)O (stereo not shown) [Vigabatrin],fold induction at 50 µM,[1]; [15],0.9
same,fold induction at 50 µM,[2]; [16],1.1
same,fold induction at 50 µM,[3]; [17],0.8
same,fold induction at 50 µM,[4]; [18],0.9
same,fold induction at 50 µM,[5]; [19],0.8
same,fold induction at 50 µM,[6]; [20],1
same,fold induction at 50 µM,[7]; [21],0.7
Nc1[nH]c(=O)ncc1F [Flucytosine],fold induction at 50 µM,"[1]; cutoff for positive-scoring molecules 3-fold increase, read-out: AK-based Prestwick Library Screening Results, P. aeruginosa (fold increase in extracellular AK activity)",1.1
same,fold induction at 50 µM,"[2]; cutoff for positive-scoring molecules 3-fold increase, read-out: AK-based Prestwick Library Screening Results, A. baumannii (fold increase in extracellular AK activity)",1.2
same,fold induction at 50 µM,"[3]; cutoff for positive-scoring molecules 3-fold increase, read-out: AK-based Prestwick Library Screening Results, E. cloacae (fold increase in extracellular AK activity)",1.8
same,fold induction at 50 µM,"[4]; cutoff for positive-scoring molecules 3-fold increase, read-out: AK-based Prestwick Library Screening Results, E. faecium (fold increase in extracellular AK activity)",0.9
same,fold induction at 50 µM,"[5]; cutoff for positive-scoring molecules 3-fold increase, read-out: AK-based Prestwick Library Screening Results, K. pneumoniae (fold increase in extracellular AK activity)",0.8
same,fold induction at 50 µM,"[6]; cutoff for positive-scoring molecules 3-fold increase, read-out: AK-based Prestwick Library Screening Results, E. coli (fold increase in extracellular AK activity)",1.1
same,fold induction at 50 µM,"[7]; cutoff for positive-scoring molecules 3-fold increase, read-out: AK-based Prestwick Library Screening Results, S. aureus (fold increase in extracellular AK activity)",1.1
Cc1c(N)c(=O)n(-c2ccccc2)n1C [Ampyrone],fold induction at 50 µM,[1]; [8],1
same,fold induction at 50 µM,[2]; [9],0.9
same,fold induction at 50 µM,[3]; [10],1
same,fold induction at 50 µM,[4]; [11],1
same,fold induction at 50 µM,[5]; [12],0.7
same,fold induction at 50 µM,[6]; [13],0.9
same,fold induction at 50 µM,[7]; [14],0.8
O=C(O)Cc1cc(I)c(Oc2ccc(O)c(I)c2)c(I)c1,AK-based Prestwick Library Screening Results: P. aeruginosa (increase in extracellular AK activity),"[1]; planktonic P. aeruginosa, 384-well, cutoff for positive-scoring molecules 3-fold increase",1.2
same,AK-based Prestwick Library Screening Results: A. baumannii (increase in extracellular AK activity),"[2]; planktonic A. baumannii, 384-well, cutoff for positive-scoring molecules 3-fold increase",1.1
same,AK-based Prestwick Library Screening Results: E. cloacae (increase in extracellular AK activity),"[3]; planktonic E. cloacae, 384-well, cutoff for positive-scoring molecules 3-fold increase",1.5
same,AK-based Prestwick Library Screening Results: E. faecium (increase in extracellular AK activity),"[4]; planktonic E. faecium, 384-well, cutoff for positive-scoring molecules 3-fold increase",1.3
same,AK-based Prestwick Library Screening Results: K. pneumoniae (increase in extracellular AK activity),"[5]; planktonic K. pneumoniae, 384-well, cutoff for positive-scoring molecules 3-fold increase",1.0
same,AK-based Prestwick Library Screening Results: E. coli (increase in extracellular AK activity),"[6]; planktonic E. coli, 384-well, cutoff for positive-scoring molecules 3-fold increase",1.1
same,AK-based Prestwick Library Screening Results: S. aureus (increase in extracellular AK activity),"[7]; planktonic S. aureus, 384-well, cutoff for positive-scoring molecules 3-fold increase",0.4
